In patent publication US20230129359A1, “MUSCARINIC RECEPTOR 4 ANTAGONISTS AND METHODS OF USE” (Neurocrine Biosciences, Inc., priority 2020, published 2023):

Key:
[1] = biological target: T1, Human muscarinic 4 receptor (CHRM4) (Homo sapiens, UniProt P08173); experiment: Fluorescence-based functional calcium assay, antagonism of acetylcholine response in CHO-K1 cells with Gα16; format: cell-based; conditions: inhibition of the acetylcholine response
T1 construct: host or cells: CHO-K1
T1 sequence (P08173 1-479): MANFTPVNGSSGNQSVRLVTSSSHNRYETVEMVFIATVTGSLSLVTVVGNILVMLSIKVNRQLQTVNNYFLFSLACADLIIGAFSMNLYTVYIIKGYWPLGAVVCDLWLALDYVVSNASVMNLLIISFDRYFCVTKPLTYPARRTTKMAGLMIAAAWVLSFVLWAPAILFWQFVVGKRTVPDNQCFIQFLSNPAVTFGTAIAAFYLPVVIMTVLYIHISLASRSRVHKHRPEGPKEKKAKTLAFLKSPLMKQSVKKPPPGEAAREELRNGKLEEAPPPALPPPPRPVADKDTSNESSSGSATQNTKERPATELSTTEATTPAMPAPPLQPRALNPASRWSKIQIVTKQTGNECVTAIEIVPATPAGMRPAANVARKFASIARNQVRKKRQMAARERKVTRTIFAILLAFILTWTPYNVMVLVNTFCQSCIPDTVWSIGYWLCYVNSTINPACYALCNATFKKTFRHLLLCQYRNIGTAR
Procedure: Functional antagonism of acetylcholine responses was evaluated using a fluorescence-based functional calcium assay. Acetylcholine binding to the muscarinic receptors activates G-proteins. Human muscarinic 4 receptor (CHRM4) was stably expressed in CHO-K1 cells and a promiscuous Gα16 construct is co-transfected. This cell line was commercially available through PerkinElmer (product number ES-213-A). Following ligand binding, activation of the Ga16 subunit induces the release of calcium from the endoplasmic reticulum. Prior to ligand screening, the receptor-expressing cells were loaded with a fluorescent calcium indicator, FLIPR Calcium 6 (Molecular Devices). Antagonist activity of the compounds was determined as the EC50 for inhibition of the acetylcholine response. The assay buffer used was a 1:1 solution of buffer (1× Hank's balanced salt solution plus 20 mM HEPES buffer, pH 7.4) and cell medium (Ham's F-12, 10% FBS, 0.4 mg/mL Geneticin, 0.25 mg/mL Zeocin). The day before the assay, 4×10^3 cells per well were seeded into an assay plate in 25 μL of medium and allowed to incubate overnight at 37° C. and 5% CO2. The following day, 25 μL of Calcium 6 dye was added to each well and incubated for two additional hours at 37° C. and 5% CO2. The test compound (a dose-response of eleven concentrations ranging from […]) was added to the cells to a final DMSO concentration of 0.56% v/v. One hour later, acetylcholine to a final concentration of 100 nM was added by the instrument and calcium flux-dependent fluorescence measured in real time. The concentration of acetylcholine used was that which stimulates 80% of the maximal response.

human M4 receptor = biological target: T2, human M4 receptor (Homo sapiens, UniProt P08173); experiment: Radioligand ([3H]N-methylscopolamine) binding assay, membranes from CHO cells expressing human M4 receptor; conditions: Ki against human M4 receptor; membranes from CHO cells; tritiated N-methylscopolamine 1.5 nM; read-out: K
T2 construct: expressed in transfected cells; host or cells: CHO cells
T2 sequence (P08173 1-479): T1 sequence (P08173 1-479)
Method in brief: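 Ki values derive from displacement of tritiated N-methylscopolamine (1.5 nM) from human M4 receptor in CHO membranes. Membranes, radioligand and twelve-point compound series were incubated together at 37 °C for 90 minutes in pH 7.4 HEPES/NaCl/MgCl2/EDTA buffer. Rapid vacuum filtration over polyethylenimine-pretreated filters was followed by radioactivity counting.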

| IC50 [1] [nM] | Ki (human M4 receptor) [nM] | SMILES |
| --- | --- | --- |
| < 10 | < 10 | C[C@@H]1CN(c2ncc(C(F)(F)F)cn2)C[C@H](C)N1C(=O)OC1CC2(C1)CN(Cc1ccccc1)C2 [Compound 147, 2-Benzyl-2-azaspiro[3.3]heptan-6-yl (2R,6S)-2,6-dimethyl-4-[5-(trifluoromethyl)pyrimidin-2-yl]piperazine-1-carboxylate] |
| – | < 10 | C[C@@H]1CN(c2ncc(C3CC3)cn2)C[C@H](C)N1C(=O)OC1CC2(C1)CN(Cc1ccccc1)C2 [Compound 506, 2-benzyl-2-azaspiro[3.3]heptan-6-yl (2R,6S)-4-(5-cyclopropylpyrimidin-2-yl)-2,6-dimethylpiperazine-1-carboxylate] |
| – | 10 to 100 | C#Cc1cnc(N2C[C@@H](C)N(C(=O)OC3CC4(C3)CN(Cc3ccccc3)C4)[C@@H](C)C2)nc1 [Compound 508, 2-benzyl-2-azaspiro[3.3]heptan-6-yl (2R,6S)-4-(5-ethynylpyrimidin-2-yl)-2,6-dimethylpiperazine-1-carboxylate] |
| – | < 10 | C[C@@H]1CN(c2ncc(OCC3CCC3)cn2)C[C@H](C)N1C(=O)OC1CC2(C1)CN(Cc1ccccc1)C2 [Compound 530, 2-benzyl-2-azaspiro[3.3]heptan-6-yl (2R,6S)-4-[5-(cyclobutylmethoxy)pyrimidin-2-yl]-2,6-dimethylpiperazine-1-carboxylate] |

The remaining lines, values behind:

| SMILES | IC50 [1] [nM] | Ki (human M4 receptor) [nM] |
| --- | --- | --- |
| C[C@@H]1CN(c2ncc(C(F)(F)F)cn2)C[C@H](C)N1C(=O)NC1CC2(C1)CN(Cc1ccccc1)C2 [Compound 96, (2R,6S)—N-{2-Benzyl-2-azaspiro[3.3]heptan-6-yl}-2,6-dimethyl-4-[5-(trifluoromethyl)pyrimidin-2-yl]piperazine-1-carboxamide] | < 10 | < 10 |
| C[C@@H]1CN(c2cnc(C(F)(F)F)cn2)[C@@H](C)CN1C(=O)OC1CC2(C1)CN(Cc1ccccc1)C2 [Compound 106, 2-benzyl-2-azaspiro[3.3]heptan-6-yl (2R,5S)-2,5-dimethyl-4-[5-(trifluoromethyl)pyrazin-2-yl]piperazine-1-carboxylate] | < 10 | 10 to 100 |
| C[C@@H]1CN(c2cnc(C(F)(F)F)cn2)C[C@H](C)N1C(=O)OC1CC2(C1)CN(Cc1ccccc1)C2 [Compound 141, 2-benzyl-2-azaspiro[3.3]heptan-6-yl (2R,6S)-2,6-dimethyl-4-[5-(trifluoromethyl)pyrazin-2-yl]piperazine-1-carboxylate] | < 10 | 10 to 100 |
| C[C@@H]1CN(c2ccc(C(F)(F)F)cc2)C[C@H](C)N1C(=O)OC1CC2(C1)CN(Cc1ccccc1)C2 [Compound 514, 2-benzyl-2-azaspiro[3.3]heptan-6-yl (2R,6S)-2,6-dimethyl-4-[4-(trifluoromethyl)phenyl]pipera-zine-1-carboxylate] | – | < 10 |
| COc1ccc(N2C[C@@H](C)N(C(=O)OC3CC4(C3)CN(Cc3ccccc3)C4)[C@@H](C)C2)cc1 [Compound 524, 2-benzyl-2-azaspiro[3.3]heptan-6-yl (2R,6S)-4-(4-methoxyphenyl)-2,6-dimethylpiperazine-1-carboxylate] | – | 100 to 1000 |
| Cc1cc(N2C[C@@H](C)N(C(=O)OC3CC4(C3)CN(Cc3ccccc3)C4)[C@@H](C)C2)ccc1F [Compound 525, 2-benzyl-2-azaspiro[3.3]heptan-6-yl (2R,6S)-4-(4-fluoro-3-methylphenyl)-2,6-dimethylpiperazine-1-carboxylate] | – | 10 to 100 |
| COc1cc(N2C[C@@H](C)N(C(=O)OC3CC4(C3)CN(Cc3ccccc3)C4)[C@@H](C)C2)ccc1C#N [Compound 526, 2-benzyl-2-azaspiro[3.3]heptan-6-yl (2R,6S)-4-(4-cyano-3-methoxyphenyl)-2,6-dimethylpiperazine-1-carboxylate] | – | 100 to 1000 |
| C[C@@H]1CN(c2ccc(C(F)(F)F)cc2)[C@@H](C)CN1C(=O)OC1CC2(C1)CN(Cc1ccccc1)C2 [Compound 527, 2-benzyl-2-azaspiro[3.3]heptan-6-yl (2R,5S)-2,5-dimethyl-4-[4-(trifluoromethyl)phenyl]pipera-zine-1-carboxylate] | – | < 10 |
| C[C@@H]1CN(c2ccc(C(F)(F)F)cc2)CCN1C(=O)OC1CC2(C1)CN(Cc1ccccc1)C2 [Compound 528, 2-benzyl-2-azaspiro[3.3]heptan-6-yl (2R)-2-methyl-4-[4-(trifluoromethyl)phenyl]pipera-zine-1-carboxylate] | – | 10 to 100 |
